Assay results: patent publication US8350062B2, “Synthesis and anticancer activity of new actin-targeting small-molecule agents” (priority 2009, dated 2013)

How the values were obtained:
A549 tumor xenografts = experiment: A549 tumor xenograft growth in nude athymic mice; format: in vivo; conditions: 20 mg/kg i.p. on 3rd, 5th and 7th day
Procedure: Initially, we established that 10 had no observed toxicity in mice up to 50 mg/kg a single dose administered i.p. Toxicity was assessed by daily weight measurements and mouse behavior compared to non-injected mice. Next, we established tumor xenografts by injecting A549 cells subcutaneously into two groups of nude athymic mice (6 animals per group). The first group was injected only with DMSO control. The second group of animals received three i.p. doses of analog 10 (20 mg/kg) on the 3rd, 5th and 7th day after the initial tumor challenge. Tumor growth was monitored over a period of five weeks. The tumor grew rapidly in the control mice population and reached an average size of 731 mm^3 at the end of 4 weeks. […] The average tumor size for this population was 308 mm^3 after 4 weeks.
A population of 22 nude athymic mice was injected subcutaneously with A549 cells (10^7 cells in 100 μl PBS each). A subpopulation of 12 mice was injected with analog 10 in 1% DMSO at 20 mg/kg on the 3rd, 5th and 7th day following treatment with A549 cells. A control population of 10 mice was injected with 1% DMSO. Tumor growth was measured over 5 weeks.

G-actin = target: T1, G-actin (Oryctolagus cuniculus, UniProt P68135); experiment: Isothermal titration calorimetry, binding to monomeric actin; parameters: species or system rabbit; conditions: isothermal titration calorimetry, 25° C.; read-out: Kd
T1 construct: Actin was purified from rabbit muscle acetone powder; tissue Pel-Freez Biologicals (acetone powder); host or cells: rabbit muscle acetone powder
Procedure: Isothermal Titration Calorimetry. A solution of rabbit skeletal muscle actin (5-10 μM) was titrated with bistramide A or its analog (50-100 μM) at 25° C. in buffer containing 2 mM Tris HCl, pH 8.0, 0.2 mM CaCl2, 0.01% NaN3, 0.2 mM ATP, 0.2 mM 2-mercaptoethanol. Dissociation constants were calculated from the binding curve using Origin analytical software (OriginLab) with the binding model involving a single set of identical sites

[1] = test system: F-actin in DU145 prostate cancer cell line; experiment: F-actin depolymerization in DU145 prostate cancer cell line; format: cell-based, human
Text: We also examined the ability of 10 to depolymerize F-actin in live cells. The actin cytoskeleton can be readily visualized by fluorescent microscopy following Alexa Fluor 488 phalloidin staining.

SMILES: COCCC(=O)NC[C@H](O)[C@H](C)C(=O)NCCC[C@H]1O[C@@]2(CCC[C@@H](CC[C@H](C)/C=C(\C)[C@H](C)O)O2)CCC1C (some centres unmarked) [Analog 10]
- drug-based cytotoxicity (A549 tumor xenografts): no significant drug-based cytotoxicity was observed
- tumor growth (A549 tumor xenografts): substantially inhibited
- average tumor size (A549 tumor xenografts; after 4 weeks): 308 mm^3
- Kd (G-actin): 9 nM
- F-actin depolymerization in DU145 cells [1]: A similar effect of 10 on F-actin depolymerization was also observed
